{"source": "patent US20060292151A1", "about": "“L-SIGN polymorphisms and methods involving use of same” (priority 2004, published 2006)", "tested_on": "L-SIGN alleles: L-SIGN-4, -5, -7 and -9", "sequence (Q9H2X3 250-399 limits assumed)": "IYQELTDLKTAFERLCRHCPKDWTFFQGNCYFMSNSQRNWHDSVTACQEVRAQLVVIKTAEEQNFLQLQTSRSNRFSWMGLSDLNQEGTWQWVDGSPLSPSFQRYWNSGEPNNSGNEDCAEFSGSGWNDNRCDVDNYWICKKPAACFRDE", "assay": "Inhibition of L-SIGN-mediated trans-infection of Hep3B cells by HCVpp", "type": "cell-based, human", "conditions": "mannan 20 μg/ml", "protocol": "FIG. 9. Inhibition of trans-infection with agents to the CRD of L-SIGN. HeLa or HeLa-SIGN transfectants stably expressing the indicated polymorphic forms of L-SIGN were incubated with mannan (20 μg/ml), anti-CRD mAbs (120604 and 120612, 10 μg/ml), or IgG2a isotype-control IgG (10 μg/ml) prior to addition to HCVpp. Cells were incubated an additional 2 h, washed and combined with Hep3B cells. Cultures were maintained for 48 h prior to lysis and measurement of luciferase activity. The data represent the percent of trans-infection relative to that observed in the absence of inhibitor. The values were calculated as (net RLU in the presence of inhibitor)/(net RLU in the absence of inhibitor)×100, where net RLU represents the difference in RLU values observed between transfected and parental HeLa cells. Negative values are omitted for clarity. The data represent the average of 3 independent measurements. […]\nParental HeLa cells and HeLa-SIGN transfectants (2×10^4) were incubated with 200 μl of viral supernatant for 2 h at 37° C. […] Luciferase activity was measured in cell lysates using the Luciferase Assay System (Promega, Madison, Wis.) according to the manufacturer's instructions. […] Data were analyzed for statistical significance using 2-sided t-tests and a significance level of P<0.05 unless otherwise indicated. […]", "data": [{"substance": "mannan", "values": [{"measurement": "average level of inhibition of trans-infection across the different isoforms", "value": 77, "unit": "%"}, {"measurement": "level of trans-infection inhibited (range over L-SIGN-4, -5, -7 and -9)", "setting": "30 min before HCVpp, Hep3B co-culture 48 h, luciferase", "value": "47-95%"}]}]}
